Measurements taken from ChEMBL document CHEMBL1122675, “Topical carbonic anhydrase inhibitors” (J Med Chem, 1984).
In brackets after ≈: the same amount, converted by molar mass.

What was measured:
[1] = Acid dissociation constant was determined.; format: ADME
[2] = Compound was tested for Octanol / pH 7.2 phosphate buffer distribution coefficient (N=2-3); format: physicochemical
[3] = Solubility at a pH 7.2 phosphate buffer, 37 degrees celsius (N=6); format: physicochemical
[4] = biological target: Carbonic anhydrase (Homo sapiens) (UniProt P00918+P43166+P00915+P07451+P23280+O43570+Q9ULX7+Q16790+P22748+Q8N1Q1+Q9Y2D0+P35218)
Description: Compound was tested for relative in vitro carbonic anhydrase activity from human red blood cell.

[5] = Corneal permeability coefficient was determined; format: ADME
[6] = phosphate buffer, read-out: Solubility

Structure (SMILES) | pKa ([1]; read-out: pKa) | logD [2] | solubility [3, 6] | CAI activity [4] | pKa [1] | solubility ([3]; buffer) | Permeability coefficient [5]
NS(=O)(=O)c1nc2ccc(Cl)cc2s1 | 7.72 | 2.1 | 607 µg/mL (≈ 2440 µM) | 1.23 | – | – | –
CCOc1ccc2nc(S(=O)(=O)NC)sc2c1 | 9.1 | 2.59 | 64 µg/mL (≈ 235 µM) | 0.0064 | – | – | –
NS(=O)(=O)c1nc2ccccc2s1 | 7.9 | 1.33 | – | – | – | 1021 µg/mL (≈ 4760 µM) | 36.2 ×10⁻⁶ cm/s
CCOc1ccc2nc(S(N)(=O)=O)sc2c1 [ETHOXZOLAMIDE] | – | 2.06 | 60 µg/mL (≈ 232 µM) | – | – | – | 43.9 ×10⁻⁶ cm/s

Second part, the molecule after the results:

pKa ([1]; read-out: pKa) | logD [2] | solubility [3, 6] | CAI activity [4] | pKa [1] | solubility ([3]; buffer) | Permeability coefficient [5] | Structure (SMILES)
7.81 | 1.12 | – | – | 9.26 | 1560 µg/mL (≈ 6770 µM) | – | NS(=O)(=O)c1nc2ccc(O)cc2s1
2.95 | -1.02 | 11500 µg/mL (≈ 38300 µM) | 0.0041 | – | – | – | CCOc1ccc2nc(S(=O)(=O)NC(C)=O)sc2c1
